Test results from US20260042764A1, “COMPOSITIONS AND METHODS FOR INHIBITION OF KRAS” (TheRas, Inc., priority 2022, published 2026).

Legend:
[1] = system: AsPC-1 cells (KRAS G12D); assay: 3D Cell viability assay in AsPC-1 cells (Biological Example 6); type: cell-based; conditions: AsPC-1 (KRAS G12D) spheroids, 72 hours
Method: (§1) Biological Example 6: 3D Cell viability assay in AsPC-1, SW1900, HPAC, Capan-2, RKN, H358, HCT116, KP-2, H1573, A549, MKN1, and HT1080 cells
(§2) The inhibition of cellular viability as a result of test compound treatment in a spheroid assay was measured using the CellTiter-Glow 3D Cell Viability Assay (Promega).
(§3) On Day 1, 1000 cells per well were seeded in 150 μL of complete growth media supplemented with 10% fetal bovine serum (FBS) and incubated at 37° C., in the presence of 5% CO2 in 96-well ultra-low attachment microplates (Corning) for 48 hours undisturbed to allow spheroids to form.
(§4) Following spheroid formation, cells were treated with compounds diluted in DMSO at 0.25% final DMSO concentration. Compounds were dosed in a 9-point concentration curve with three-fold dilution between concentrations. Cells were incubated in the presence of compound for 72 hours at 37° C., in the presence of 5% CO2.
(§5) Following this incubation period, the kit-provided CTG reagent was allowed to equilibrate for 30 minutes at room temperature, 150 μL of equilibrated CTG reagent was added to each well, and the plate was sealed before shaking at 250 rpm for 10 minutes at room temperature to lyse the cells, 150 μL of lysate per well was transferred to a 96-well plate and luminescence was read on a CLARIOstar plate reader.
(§6) Data was imported into the Prism software package (Graphpad) and EC50 values were calculated using the log (inhibitor) vs, response—variable slope (Four parameters) model.

[2] = system: MKN1 cells (KRAS amplification); assay: Cell-based pERK HTRF assay in MKN1 cells (Biological Example 5)
Method: (§7) Biological Example 5: Cell-based PERK HTRF assay in AsPC-1, SW1900, HPAC, Capan-2, RKN, H358, HCT116, KP-2, H1573, A549, MKN1, and HT1080 cells
(§8) The inhibition of ERK phosphorylation, as measured using the HTRF Advanced Phospho-ERK 1/2 (Thr202/Tyr204) Detection Assay kit (Perkin Elmer), was used to determine the effectiveness of test compounds in disrupting KRAS-driven protein/effector signaling in cells.
(§9) On day 1, cells were seeded into 96-well plates at 2.5×10^4 cells/well in 100 μL of complete growth media supplemented with 10% fetal bovine serum (FBS) and incubated at 37° C., in the presence of 5% CO2.
(§10) On day 2, cells were treated with compounds diluted in DMSO at 0.25% final DMSO concentration. Compounds were dosed in a 9-point concentration curve with three-fold dilution between concentrations. Cells were incubated in the presence of compound for two hours at 37° C. Following this treatment period, cells were harvested by aspirating the media, adding 40 μL of kit-supplied 1x lysis buffer per well, and shaking for 30 minutes at 250 rpm at room temperature.
(§11) Following cell lysis, samples were homogenized by pipetting up and down twenty times and 16 μL of cell lysate per well was transferred from the 96-well cell culture plate to two wells of a 384-well detection plate. A complete detection buffer was prepared by diluting D2 and Eu Cryptate antibodies 1:20 in kit-provided detection solution, 4 μL of complete detection buffer was then added to each well with lysate. Plates were incubated with gentle rocking for 24 hours at 4° C.
(§12) Following this incubation period, plates were centrifuged at 500×g for one minute and analyzed on a CLARIOstar plate reader. Data was imported into Microsoft Excel and the signal from the 665 nm channel was divided by the signal from the 620 nm channel. % pERK was calculated as: […]
(§13) Data was imported to the Prism software package (Graphpad) and EC50 values were calculated using the log (inhibitor) vs, response—variable slopc (Four parameters) model.

[3] = system: HCT116 cells (KRAS G13D); assay: 3D Cell viability assay in HCT116 cells (Biological Example 6); type: cell-based; conditions: Homo sapiens, HCT-116; HCT116 (KRAS G13D) spheroids, 72 hours
How it was run: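 EC50 came from a four-parameter log(inhibitor) vs response fit of CellTiter-Glo 3D luminescence. Compound exposure lasted 72 h at 37 °C: nine three-fold dilutions, 0.25% final DMSO. Cells were first grown 48 h as 3D spheroids (1000 cells/well, 10% FBS).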

[4] = system: RKN cells (KRAS G12V); assay: 3D Cell viability assay in RKN cells (Biological Example 6); type: cell-based; conditions: RKN (KRAS G12V) spheroids, 72 hours
Method: as §1, §2, §3, §4, §5, §6

[5] = system: Capan-2 cells (KRAS G12V); assay: Cell-based pERK HTRF assay in Capan-2 cells (Biological Example 5)
Method: as §7, §8, §9, §10, §11, §12, §13

[6] = system: RKN cells (KRAS G12V); assay: Cell-based pERK HTRF assay in RKN cells (Biological Example 5)
Method: as §7, §8, §9, §10, §11, §12, §13

[7] = system: Capan-2 cells (KRAS G12V); assay: 3D Cell viability assay in Capan-2 cells (Biological Example 6); type: cell-based; conditions: Capan-2 (KRAS G12V) spheroids, 72 hours
Method: as §1, §2, §3, §4, §5, §6

[8] = MKN cells (MKN1, KRAS amplification)
[9] = Homo sapiens, MKN-1, MKN cells (MKN1, KRAS amplification)
[10] = Homo sapiens, Capan-2, Capan-2 (KRAS G12V) cells

Structure (SMILES)	IC50 [1]	IC50 [2, 8]	IC50 [3]	IC50 [4]	IC50 ([5]; Capan-2 (KRAS G12V) cells)	IC50 [6]	IC50 [7]	IC50 ([1]; Homo sapiens, ASPC1)	IC50 [2, 9]	IC50 [5, 10]	IC50 ([7]; Homo sapiens)
Cc1c(C(=O)N(C)C)nn2c1CN(c1nc(OC[C@@]34CCCN3C[C@H](F)C4)nc3c(F)c(-c4ccc(F)c5sc(N)c(C#N)c45)c(C(F)(F)F)cc13)CC2 (atropisomer, axis not shown; (aS)) [Compound 590, 5-((S)-7-(2-amino-3-cyano-7-fluorobenzo[b]thiophen-4-yl)-8-fluoro-2-(((2R,7aS)-2-fluorotetrahydro-1H-pyrrolizin-7a(5H)-yl)methoxy)-6-(trifluoromethyl)quinazolin-4-yl)-N,N,3-trimethyl-4,5,6,7-tetrahydropyrazolo[1,5-a]pyrazine-2-carboxamide]	≤ 100 nM	≤ 100 nM	100 to 1000 nM	≤ 100 nM	≤ 100 nM	≤ 100 nM	≤ 100 nM	–	–	–	–
CCC(=O)N1C[C@@H](N(CC)c2nc(OC[C@@]34CCCN3C[C@H](F)C4)nc3c(F)c(-c4ccc(F)c5sc(N)c(C#N)c45)c(C(F)(F)F)cc23)C[C@H]1C [Compound 442]	–	–	100 to 1000 nM	≤ 100 nM	–	≤ 100 nM	–	≤ 100 nM	≤ 100 nM	≤ 100 nM	≤ 100 nM
CCN(c1nc(OC[C@@]23CCCN2C[C@H](F)C3)nc2c(F)c(-c3ccc(F)c4sc(N)c(C#N)c34)c(C(F)(F)F)cc12)[C@H]1CCN(C(=O)C(C)C)C1 [Compound 332]	–	≤ 100 nM	100 to 1000 nM	≤ 100 nM	≤ 100 nM	≤ 100 nM	–	≤ 100 nM	–	–	≤ 100 nM
C[C@@H]1[C@H](N(C)c2nc(OC[C@@]34CCCN3C[C@H](F)C4)nc3c(F)c(-c4ccc(F)c5sc(N)c(C#N)c45)c(C(F)(F)F)cc23)CC(=O)N1C [Compound 440]	–	–	> 1000 nM	≤ 100 nM	–	100 to 1000 nM	–	≤ 100 nM	≤ 100 nM	100 to 1000 nM	100 to 1000 nM
